Results as given in patent publication US20060100210A1, “Methods for treatment of scleroderma” (priority 2001, published 2006).
Structures can show the parent of a compound that is named as a salt. Where two headings read alike, the source gives them in different places.

Tests used:
[1] = in vivo; cited from earlier work
[2] = biological target: T1, GST-cGB-PDE5 fusion protein (cGMP binding sites of human PDE5A) (Homo sapiens, UniProt O76074); assay: cGMP binding assay with GST-cGB-PDE5 fusion protein; details: for competition with cGMP in binding of GST-cGB-PDE5: high concentration (100 μM) vs cGMP (2 μM)
T1 construct: made in house; host or cells: E. coli BL21 (DE3)
Excerpt: RT-PCR method is used to obtain the cGB domain of PDE5 with forward and reverse primers designed from bovine PDE5A cDNA sequence (McAllister-Lucas L. M. et al, J. Biol. Chem. 268, 22863-22873, 1993) and the selection among PDE 1-10 families. 5′-3′, Inc. kits for total RNA followed by oligo (dT) column purification of mRNA are used with HT-29 cells. […] It is then cloned into pGEX-5×-3 […] (GST) fusion vector (Pharmacia Biotech) with tac promoter, and EcoRI and XhoI cut sites. The fusion vector is then transfected into E. Coli BL21 (DE3) bacteria (Invitrogen). The transfected BL21 bacteria is grown to log phase, and then IPTG is added as an inducer. The induction is carried at 20° C. for 24 hrs. The bacteria are harvested and lysed. The soluble cell lysate is incubated with GSH conjugated Sepharose 4B (GSH-Sepharose 4B). The GST-cGB-PDE5 fusion protein can bind to the GSH-Sepharose beads, and the other proteins are washed off from beads with excessive cold PBS.
The vials are counted on a Beckman LS 6500 scintillation counter.
The quenching by filter membrane or other debris are also calibrated.

U937 cells = assay: Apoptosis induction of U937 cells (active caspase 3, indirect immunofluorescence); assay type: cell-based; details: 1 μM, 24 hours
Protocol: The presence of PDE2 and PDE5 protein within U937 cells was confirmed by indirect immunofluorescence (IIF). U937 cells were cultured as above. Two U937 cultures, one grown in the presence of 5 nM TPA for 48 hours and one grown in normal media were processed. All cultures were collected by centrifugation (Shandon Cytospin, 2 minutes @ 600 rpm) onto poly-L lysine-coated slides and immediately fixed in fresh 3% paraformaldehyde buffered in PBS for 10 minutes. Adherent cultures were grown on coverslips and fixed as above. Cells were permeablized in 0.2% triton-100 for 2 minutes. Slides were blocked with blocking buffer (5% goat serum, 5% glycerol, 1% gelatin from cold water fish skin and 0.04% NaN3 in PBS) for 1 hour at room temperature.
Slides were then incubated for 1 hour at 37° C. in a humid chamber with antibodies specific for PDE2 (generated in a sheep against the peptide […]) or PDE5 (generated in sheep against the peptide […]). The PDE5 antibody was used at a dilution of 1:200 and the PDE2 antibody was used at a dilution of 1:100. All dilutions were performed in blocking buffer. […]
The level of apoptosis in U937 cells was quantified by scoring 500 consecutive cells for the presence of active caspase 3. […]

[3] = Seven-day dose-range finding study in rats; assay type: in vivo; details: 7 days, 500 mg/kg/day
[4] = Long-term safety assessment, 91 consecutive days, rats; assay type: in vivo; details: 91 days, 200 and 500 mg/kg/day
Excerpt: These changes were not associated with any gross clinical abnormality.

T1 sequence (O76074 46-539 limits assumed): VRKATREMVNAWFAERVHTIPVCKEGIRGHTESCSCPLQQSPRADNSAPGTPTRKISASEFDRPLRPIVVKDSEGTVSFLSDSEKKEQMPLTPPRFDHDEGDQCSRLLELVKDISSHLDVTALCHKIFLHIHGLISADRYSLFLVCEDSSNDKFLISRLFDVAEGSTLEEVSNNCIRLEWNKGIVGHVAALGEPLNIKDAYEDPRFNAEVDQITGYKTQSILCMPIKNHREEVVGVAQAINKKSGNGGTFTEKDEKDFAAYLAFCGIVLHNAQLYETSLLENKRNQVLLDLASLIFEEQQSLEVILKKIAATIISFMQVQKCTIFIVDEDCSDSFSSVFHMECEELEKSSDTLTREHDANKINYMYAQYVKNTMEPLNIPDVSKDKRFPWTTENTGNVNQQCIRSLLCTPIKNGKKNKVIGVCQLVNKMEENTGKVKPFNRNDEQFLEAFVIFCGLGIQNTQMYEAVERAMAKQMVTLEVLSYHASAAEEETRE

| Compound | competition with cGMP in binding of GST-cGB-PDE5 (cGMP binding sites) ([2]; 3H-cGMP 2 μM, 22° C., 1 hour) | other results |
| --- | --- | --- |
| interferon gamma: interferon, drug that affects certain factors in the immune system |  | skin symptoms [1]: modest improvement in skin symptoms |
| CC1=C(CC(=O)O)c2cc(F)ccc2/C1=C\c1ccc(S(C)(=O)=O)cc1 [exisulind] | None of the PDE5 inhibitors showed any competition with cGMP |  |
| O=C(O)C1CCN(c2nc(NCc3ccc4c(c3)OCO4)c3cc(Cl)ccc3n2)CC1 [Example E4021] | None of the PDE5 inhibitors showed any competition with cGMP |  |
| O=c1ccn([C@@H]2O[C@@H]3COP(=O)(O)O[C@H]3[C@H]2O)c(=O)[nH]1 [cUMP, cyclic UMP] | did not compete with cGMP in binding |  |
| Nc1ccn([C@@H]2O[C@@H]3COP(=O)(O)O[C@H]3[C@H]2O)c(=O)n1 [cCMP, cyclic CMP] | did not compete with cGMP in binding |  |
| CCCOc1ccccc1-c1nc2nn[nH]c2c(=O)[nH]1 [zaprinast] | None of the PDE5 inhibitors showed any competition with cGMP |  |
| O=c1[nH]cnc2c1ncn2[C@@H]1O[C@@H]2COP(=O)(O)O[C@H]2[C@H]1O [Cyclic IMP, cyclic IMP] |  | competition with cGMP in binding of GST-cGB-PDE5 [2]: can partially compete with cGMP |
| CCCCOC1C2OP(=O)(O)OCC2OC1n1cnc2c(=O)[nH]c(N)nc21 (stereo not shown) [2′-O-butyl-cGMP] | did not compete with cGMP in binding |  |
| CC1=C(CC(=O)NCc2ccccc2)c2cc(F)ccc2/C1=C\c1ccncc1 [Compound 38, (Z)-5-Fluoro-2-Methyl-(4-Pyridylidene)-3-(N-Benzyl) Indenylacetamide Hydrochloride] | does not bind to the cGMP-binding site of PDE5 | apoptosis by presence of active caspase 3 (FIG. 8) (U937 cells): undergoing apoptosis; treatment-related effects [3]: limited to an increase in absolute and relative liver weights in female rats; microscopic findings [4]: slight hepatocellular hypertrophy at 200 and 500 mg/kg/day groups, follicular cell hypertrophy at 500 mg/kg/day and increase in accumulation of hyalin droplets in the kidneys at 200 and 500 mg/kg/day group |
| Nc1ncnc2c1ncn2[C@@H]1O[C@@H]2COP(=O)(O)O[C@H]2[C@H]1O [Cyclic AMP] |  | competition with cGMP in binding of GST-cGB-PDE5 (cGMP binding sites) [2]: did not compete with cGMP in binding |
| CCCCOC1C2OP(=O)(O)OCC2OC1n1cnc2c(N)ncnc21 (stereo not shown) [2′-O-butyl-cAMP] | did not compete with cGMP in binding |  |
| Nc1nc2c(nc(Br)n2[C@@H]2O[C@@H]3COP(=O)(O)O[C@H]3[C@H]2O)c(=O)[nH]1 [Example 8-bromo-cGMP, 8-bromo-cGMP] |  | competition with cGMP in binding of GST-cGB-PDE5 [2]: can partially compete with cGMP |
| CSc1ccc(/C=C2/C(C)=C(CC(=O)O)c3cc(F)ccc32)cc1 [Sulindac sulfide, sulindac sulfide] | None of the PDE5 inhibitors showed any competition with cGMP |  |
